Tests used:
UAC032 (Melanoma) = assay: SRB assay, UAC032; format: cell-based, human; conditions: 48 h
Protocol: SRB assays were performed according to standard National Cancer Institute Guidelines. Briefly, human tumor cells from different cancer panels were seeded into 96 well plates in 100 μL (plating densities ranging from 5-40,000 cells/well depending on the doubling time of individual cell lines) in serum-containing media for twenty-four hours prior to the addition of the compounds to be assayed. After 24 hours, one plate of each cell line was fixed in situ with trichloroacetic acid (TCA). The fixed slides were used to determine the cell population for each cell line at the time of drug addition (Tz). Each compound to be tested was solubilized in DMSO and the desired concentration was then added to the medium and diluted serially 1:10 to provide a total of five or ten drug concentrations plus control (in a final volume of 200 μL). The starting dose before any dilution was 100 uM for all compounds.
Following drug addition, each culture was incubated for forty-eight hours. The assay was terminated with the addition of cold TCA. The supernatant was discarded, and the plates were washed with tap water and air dried. Sulforhodamine B (SRB) solution was then added to each well. After staining, the bound stain was solubilized and the absorbance was read on an automated plate reader at a wavelength of 515 nm.
Using the absorbance measurements [time zero, (Tz), control growth, (C), and test growth in the presence of drug at the ten concentration levels (Ti)], the percentage growth was calculated at each of the drug concentrations levels. Percentage growth inhibition was calculated as:
[(Ti−Tz)/(C−Tz)]×100 for concentrations for which Ti>/=Tz […]
Three dose response parameters were calculated for each experimental agent. […] The drug concentration resulting in total growth inhibition (TGI) was calculated from Ti=Tz. […]
Values were calculated for each of these three parameters when the level of activity was reached; however, if the effect was not reached or was exceeded, the value for that parameter was expressed as greater or less than the maximum or minimum concentration tested. […]

[1] = system: PC-3 xenografts (prostate adenocarcinoma, grade IV); assay: PC-3 xenograft anti-tumor activity
Protocol: Compound 56 was tested for its anti-tumor activity in PC-3 and A549 xenografts. To generate xenografts in mice, exponentially growing cultures of approximately 10^6 PC-3 cells (prostate adenocarcinoma, grade IV) or A549 cells (lung carcinoma) were injected subcutaneously according to the British practice of bilateral trocar implants at the axillary region of 6-8 weeks old male (PC-3 cells) or female (A549 cells) Nod/Scid mice. The two tumor cell inoculums were added together for each mouse, thus producing a tumor burden per mouse value for data analysis. The advantage of the British system is reduced mouse-to-mouse variability and, thus, the ability to decrease the total number of animals per group, with five or six being sufficient for accurate data analysis of tumor response and evaluation of toxicities.
Tumor volume was calculated according to the formula [(axb2)/2], where a=length and b=width of the tumor as measured with a vernier's caliper (measurements were performed twice a week). All administrations were intraperitoneal. Treated animals received a single injection according to the schedule described for each study (see below). In addition to tumor volume, the parameter, % DT/DC, was calculated, where DT=T−Do and DC=C−Do (Do is the average tumor volume at the beginning of the treatment; T and C are the volumes of treated and untreated tumors, respectively, at a specified day). Optimal DT/DC value was used as a measure of drug activity. Losses of weight, neurological disorders and behavioral and dietary changes were also recorded as indicators of toxicity (side effects). The experiment was terminated when tumor size in untreated animals reached a volume of about 1000-1500 mm^3. All animals were treated according to Greek laws (2015/92), guidelines of the European Union and the European council (86/609 and ETS123, respectively), and Compliance with Standards for Human Care and Use of Laboratory Animals, NIH, USA (Assurance No. A5736-01).
In order to develop PC-3 xenografts, male mice 6-8 weeks old were inoculated bilateral at the two axilla regions at day 0.
Compound 56 was administered intraperitoneallly at the following dpis: d13, d14, d15, d16, d17, d20, d21, d22, d23, d24, d27, d28, 29, d30.

SMILES	CC50 (UAC032 (Melanoma); Homo sapiens, read-out: LC50)	GI50 (UAC032 (Melanoma); Homo sapiens, UAC032, SRB)	TGI (UAC032 (Melanoma); UAC032, SRB)	post mortem analysis on excised PC-3 tumors: tumor growth inhibition ([1]; 17 mgk intraperitoneal)	toxicity (body weight, deaths) ([1]; PC-3 xenograft mice, compound 56 17 mgk, digoxin 2 mgk, intraperitoneal)	metastases versus control group (post mortem) ([1]; PC-3 xenografts, 17 mgk intraperitoneal)	optimal DT/DC ([1]; PC-3 xenografts, 17 mgk intraperitoneal, day 34, p=6×10^−6)	anti-tumor activity in PC-3 xenografts (FIG. 2A) ([1]; mouse, in vivo)
C[C@]12CCC(=NOCCN)C=C1CCC1C2CC[C@]2(C)C(=O)CCC12 (stereo partly drawn) [Compound 12, (10R,13S)-3-(2-aminoethoxyimino)-10,13-dimethyl-2,3,7,8,9,10,11,12,13,14,15,16-dodecahydro-1H-cyclopenta[a]phenanthren-17(6H)-one]	49.5 µM	4.57 µM	7.64 µM					
C[C@]12CCC(=NOC3CCNC3)CC1CCC1C2CC[C@]2(C)C(=O)CCC12 (stereo partly drawn) [Compound 56, (10S,13S)-10,13-dimethyl-3-(pyrrolidin-3-yloxyimino)tetradecahydro-1H-cyclopenta[a]phenanthren-17(2H)-one]				statistical significant tumor growth inhibition	not toxic	suppression of bone lymph node and front axilla metastases	48.71%	has anti-tumor activities
